US4438031A, “N-(Alkylsulfonyl)-L-proline amide and N-(alkylsulfonyl)-2-carboxylic acid amide-indoline derivatives” (American Home Products Corporation, priority 1982, dated 1984)
Counter-ions that a name gives are not always drawn.

What was measured:
[1] = oral administration; cited from earlier work
[2] = biological target: T1, angiotensin converting enzyme (Oryctolagus cuniculus, UniProt P12822); assay: in vitro angiotensin converting enzyme (ACE) inhibition, rabbit lung extract, substrate hippuryl-L-histidyl-L-leucine (Cushman et al.); type: biochemical
T1 construct: The in vitro assay utilizes rabbit lung extract; from tissue; host or cells: rabbit lung extract
T1 sequence (P12822 34-1310): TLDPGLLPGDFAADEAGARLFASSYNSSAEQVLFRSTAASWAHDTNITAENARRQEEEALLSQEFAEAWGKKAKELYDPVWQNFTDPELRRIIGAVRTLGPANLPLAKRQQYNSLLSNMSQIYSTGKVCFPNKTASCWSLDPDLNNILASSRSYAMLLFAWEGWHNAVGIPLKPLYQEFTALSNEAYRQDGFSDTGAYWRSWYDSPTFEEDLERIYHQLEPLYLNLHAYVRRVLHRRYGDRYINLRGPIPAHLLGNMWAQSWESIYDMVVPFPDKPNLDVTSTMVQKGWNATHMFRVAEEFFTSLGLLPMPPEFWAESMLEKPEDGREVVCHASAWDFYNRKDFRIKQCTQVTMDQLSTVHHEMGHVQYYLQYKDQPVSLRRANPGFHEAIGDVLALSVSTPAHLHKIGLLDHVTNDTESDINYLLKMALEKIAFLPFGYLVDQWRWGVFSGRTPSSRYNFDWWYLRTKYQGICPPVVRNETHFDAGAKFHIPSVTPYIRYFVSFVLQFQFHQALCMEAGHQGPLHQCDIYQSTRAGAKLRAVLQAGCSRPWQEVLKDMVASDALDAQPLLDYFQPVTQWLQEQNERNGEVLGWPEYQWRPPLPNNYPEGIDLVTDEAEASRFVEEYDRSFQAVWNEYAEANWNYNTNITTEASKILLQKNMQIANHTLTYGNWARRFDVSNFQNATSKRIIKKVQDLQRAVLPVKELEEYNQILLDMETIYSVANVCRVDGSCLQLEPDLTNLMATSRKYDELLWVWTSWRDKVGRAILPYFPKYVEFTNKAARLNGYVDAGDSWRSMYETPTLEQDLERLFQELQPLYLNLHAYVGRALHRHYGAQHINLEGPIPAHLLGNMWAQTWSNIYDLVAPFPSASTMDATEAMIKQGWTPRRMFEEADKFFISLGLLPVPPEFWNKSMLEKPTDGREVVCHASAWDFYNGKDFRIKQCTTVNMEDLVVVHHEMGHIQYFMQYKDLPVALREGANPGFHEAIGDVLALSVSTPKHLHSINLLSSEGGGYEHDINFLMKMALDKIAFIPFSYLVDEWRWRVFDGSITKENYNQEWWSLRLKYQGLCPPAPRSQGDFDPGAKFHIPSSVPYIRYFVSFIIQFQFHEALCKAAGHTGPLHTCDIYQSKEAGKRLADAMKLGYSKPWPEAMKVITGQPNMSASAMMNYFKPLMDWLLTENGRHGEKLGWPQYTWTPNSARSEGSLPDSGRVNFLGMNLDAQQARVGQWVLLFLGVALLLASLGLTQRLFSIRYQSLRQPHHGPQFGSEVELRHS
Method: The angiotensin converting enzyme (ACE) inhibitory property of the compounds is measured in vitro and in vivo. The in vitro assay utilizes rabbit lung extract and a specific tripeptide substrate, hippuryl-L-histidyl-L-leucine being preferred, and follows the method of Cushman et al., Biochem. Pharmacol, 20, 1637-1648 (1971).

[3] = humans with certain forms of hypertension; cited from earlier work

Molecule	oral activity as an anti-hypertensive agent [1]	inhibition at 1 µg/mL ([2]; concentration 1000 ng/ml) [%]	inhibition at 0.05 µg/mL ([2]; concentration 50 ng/ml) [%]	also measured
C[C@H](CS)C(=O)N1CCCC1C(=O)O (stereo in doubt) [D-3-mercapto-2-methylpropanoyl-L-proline]	effective when administered orally			
C[C@H](CSC(=O)c1ccccc1)C(=O)N1CCC[C@H]1C(=O)NS(C)(=O)=O [Example 1, Benzenecarbothioic Acid S-[(2S)-2-Methyl-3-[(2S)-2-[(Methylsulfonylamino)Carbonyl]-1-Pyrrolidinyl]-3-Oxopropyl]Ester, Dicyclohexylamine Salt]		80		inhibition at 0.1 µg/mL ([2]; concentration 100 ng/ml): 35 to 38%; inhibition of angiotensin converting enzyme ([2]; concentration 100 ng/ml, listed as Example 2): 35-38%
C[C@H](CSC(=O)c1ccccc1)C(=O)N1CCC[C@H]1C(=O)NS(C)(=O)=O [Example 3, Benzenecarbothioic Acid S-[(2S)-2-Methyl-3-[(2S)-2-[(Methylsulfonylamino)Carbonyl]-1-Pyrrolidinyl]-3-Oxopropyl]Ester]			14 to 21	inhibition of angiotensin converting enzyme ([2]; concentration 100 ng/ml): 31-37%; inhibition of angiotensin converting enzyme ([2]; concentration 1000 ng/ml): 76-80%
C[C@H](CS)C(=O)N1CCC[C@H]1C(=O)NS(C)(=O)=O [Example 4, (S)-1-[(2S)-3-Mercapto-2-Methyl-1-Oxopropyl]-N-(Methylsulfonyl)-2-Pyrrolidinecarboxamide]		89 to 92	32	inhibition of angiotensin converting enzyme ([2]; concentration 50 ng/ml): 50-57%
Pyr-Trp-Pro-Arg-Pro-Gln-Ile-Pro-Pro (WPRPQIPP; N-terminal pyroglutamyl; printed: Trp-Pro-Arg-Pro-Gln-Ile-Pro-Pro) [BPP9a]	not orally active			anti-hypertensive effect in clinical studies [3]: effective anti-hypertensive agent
